# Measurements taken from ChEMBL document CHEMBL4627328, “Synthesis and in vitro evaluation of antimycobacterial and cytotoxic activity of new α,β-unsaturated amide, oxazoline and oxazole derivatives from l-serine” (Bioorg Med Chem Lett, 2020).
# How the values were obtained:
# [1] = test system: Mycobacterium tuberculosis; experiment: Antimycobacterial activity against Mycobacterium tuberculosis H37Rv ATCC 27294 incubated for 5 days by alamar blue based colorimetric assay; type: functional; details: H37Rv ATCC 27294, 120 h
# [2] = Cytotoxicity against monkey Vero cells assessed as cell viability at 50 ug/ml by WST-1 assay relative to control; type: cell-based; details: chlorocebus sabaeus, read-out: Activity
# [3] = Cytotoxicity against monkey Vero cells assessed as cell viability at 100 ug/ml by WST-1 assay relative to control; type: cell-based; details: chlorocebus sabaeus, read-out: Activity
SMILES,MIC [1] [µM],viability at 50 ug/ml [2] [%],viability at 100 ug/ml [3] [%]
COC(=O)[C@H](COC(=O)/C=C/c1ccc(F)cc1)NC(=O)/C=C/c1ccc(F)cc1,120,21.1,8.65
COC(=O)[C@H](CO)NC(=O)/C=C/c1ccc(F)cc1,> 374,–,–
COC(=O)[C@H](COC(=O)/C=C/c1ccccc1)NC(=O)/C=C/c1ccccc1,> 264,16.8,10.7
COC(=O)[C@H](CO)NC(=O)/C=C/c1ccc(C)cc1,> 380,100,101
O=C(/C=C/c1ccc(F)cc1)O/C(=N/C1CCCCC1)NC1CCCCC1,> 268,82.5,85.5
COC(=O)c1coc(/C=C/c2ccc(C)cc2)n1,3.21,102,100
O=C(/C=C/c1ccccc1)O/C(=N/C1CCCCC1)NC1CCCCC1,> 282,83.9,83.8
COC(=O)[C@@H]1COC(/C=C/c2ccc(C)cc2)=N1,25.4,85.1,17
CO[C@H]1/C=C/O[C@@]2(C)Oc3c(C)c(O)c4c(O)c(c(/C=N/N5CCN(C)CC5)c(O)c4c3C2=O)NC(=O)/C(C)=C\C=C\[C@H](C)[C@H](O)[C@@H](C)[C@@H](O)[C@@H](C)[C@H](OC(C)=O)[C@@H]1C [RIFAMPIN],0.06,–,–
COC(=O)c1coc(/C=C/c2ccccc2)n1,54.5,99.6,102
CC[C@@H](CO)NCCN[C@@H](CC)CO [ETHAMBUTOL],15.2,–,–
COC(=O)[C@@H]1COC(/C=C/c2ccc(F)cc2)=N1,50.1,91.6,18.6
COC(=O)c1coc(/C=C/c2ccc(OC)cc2)n1,24.1,99.6,96.8
Cc1ccc(/C=C/C(=O)O/C(=N/C2CCCCC2)NC2CCCCC2)cc1,> 271,79.3,95.5
COC(=O)[C@@H]1COC(/C=C/c2ccc(OC)cc2)=N1,23.9,94.8,20.9
COC(=O)c1coc(/C=C/c2ccc(F)cc2)n1,12.6,102,99
COC(=O)[C@H](COC(=O)/C=C/c1ccc(C)cc1)NC(=O)/C=C/c1ccc(C)cc1,123,28.8,18.7
COC(=O)[C@H](COC(=O)/C=C/c1ccc(OC)cc1)NC(=O)/C=C/c1ccc(OC)cc1,114,39.1,11.4
COC(=O)[C@H](CO)NC(=O)/C=C/c1ccccc1,> 401,97.1,99.4
COC(=O)[C@@H]1COC(/C=C/c2ccccc2)=N1,54.1,68.6,12.4
C[C@H]1COc2c(N3CCN(C)CC3)c(F)cc3c(=O)c(C(=O)O)cn1c23 [LEVOFLOXACIN],0.54,–,–
COC(=O)[C@H](CO)NC(=O)/C=C/c1ccc(OC)cc1,> 358,100,103
